We go through 8 molecules from patent publication US20250099420A1, “SMALL MOLECULE MODULATORS OF GPR139 COMPLEX” (University of Florida Research Foundation, Incorporated, priority 2022, published 2025).

The test system of one data set is parental HEK cells. Briefly: HEK parental Agonist Counterscreen Assay (non-transfected cells). The format is cell-based. The following applies: for Averaged Max % Response (±St. Dev.): activity relative to known control. From the text: The high control for the agonist counterscreen was Forskolin not acetylcholine.
Another data set has as its target T1, GPR139 (Homo sapiens, UniProt Q6DWJ6).
T1 sequence (Q6DWJ6 1-353): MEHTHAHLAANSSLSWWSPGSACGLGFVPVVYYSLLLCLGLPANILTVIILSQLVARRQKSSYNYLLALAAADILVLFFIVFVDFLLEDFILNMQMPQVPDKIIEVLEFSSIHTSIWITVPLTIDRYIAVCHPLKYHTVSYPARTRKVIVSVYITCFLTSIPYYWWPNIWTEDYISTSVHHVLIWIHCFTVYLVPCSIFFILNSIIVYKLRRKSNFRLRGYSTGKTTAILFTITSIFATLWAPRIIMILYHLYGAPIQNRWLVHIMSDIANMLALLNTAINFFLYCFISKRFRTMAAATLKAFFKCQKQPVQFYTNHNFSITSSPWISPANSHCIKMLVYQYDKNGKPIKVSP
Briefly: GPR139 Agonist titration / agonist counterscreen assay (calcium detection, HEK-GPR139 cells). The following applies: GPR139 Agonist Activity; for EC50: read-out: EC50; for Averaged Max % Response (±St. Dev.): activity relative to known control. Format: cell-based. Set-up: expressed in transfected cells; host or cells: HEK Aequorin cells, Maxcyte transient transfection. The procedure:
GPR activity was assessed using a calcium detection assay. […] Negative control samples were treated with DMSO. […] Intracellular calcium was measured using Calcium 5.
For orientation: A counterscreen serves to expose hits that act by an unwanted route or on another target.

The mark [1] stands for this setting: Homo sapiens, HEK293, HEK Agonist Activity section of Table 4 (parental HEK counterscreen).
Setting [2] is: HEK Agonist Activity section of Table 4 (parental HEK counterscreen).
[3] abbreviates: values printed in E-notation without unit.
The mark [4] stands for this setting: Homo sapiens, HEK293, HEK Agonist Activity, parental non-transfected HEK cells.

Read-outs that look alike come from different tables or passages of the source.

Consider `Cc1cc(=O)n2nc(NCc3ccccc3Cl)nc2[nH]1` [SR-01000153886], for which, in the data set with parental HEK cells (HEK Agonist Activity section), the “Lipophilic Efficiency (logD)” value was 2.16, the “Lipophilic Efficiency (logP)” value is on record as 2.16 and the “Averaged Max % Response (±St. Dev.)” value is recorded as −3.87 ± 9.73%. For the same molecule, the EC50 in the data set with parental HEK cells (setting [1]) was more than 14100 nM. Also, at GPR139, the “Efficiency Ligand” value is recorded as 0.41, the “Hill Slope” value came to 2.51, the “Lipophilic Efficiency (logD)” value is listed as 3.22 and the “Lipophilic Efficiency (logP)” value came out at 3.22. In addition, the “Averaged Max % Response (±St. Dev.)” value on GPR139 stood at 90.96 ± 29.33%. The EC50 at GPR139 (HEK-GPR139 cells) was found to be 1200 nM.

Turning to `O=c1c2c([nH]c3nc(NCc4ccccc4Cl)nn13)CCC2` [SR-01000153956], in the data set on parental HEK cells (HEK Agonist Activity section), the “Lipophilic Efficiency (logD)” value stood at 1.70, the “Lipophilic Efficiency (logP)” value is 1.70 and the “Averaged Max % Response (±St. Dev.)” value is reported as 21.15 ± 4.99%. In the data set with parental HEK cells (setting [1]), the EC50 was more than 14100 nM. On GPR139, the “Efficiency Ligand” value was determined as 0.38, the “Hill Slope” value was determined as 1.89, the “Lipophilic Efficiency (logD)” value was 2.80 and the “Lipophilic Efficiency (logP)” value was found to be 2.80. In addition, the “Averaged Max % Response (±St. Dev.)” value on GPR139 was found to be 93.85 ± 32.13%. Also, the EC50 at GPR139 (HEK-GPR139 cells) was 1100 nM.

Take `Cc1cc(C)c2c(cnn2CC(=O)N2CCc3ccccc3C2)c1` [SR-01000154995]: in the data set with parental HEK cells (HEK Agonist Activity section), the “Lipophilic Efficiency (logD)” value is on record as 1.52, the “Lipophilic Efficiency (logP)” value turned out to be 1.52 and the “Averaged Max % Response (±St. Dev.)” value amounted to 41.69 ± 44.54%. Also, the half-maximal effective concentration (EC50) in the data set on parental HEK cells (setting [2]) was more than 14100 nM. For the same molecule, at GPR139, the “Efficiency Ligand” value was determined as 0.36, the “Hill Slope” value is 1.08, the “Lipophilic Efficiency (logD)” value was found to be 2.91 and the “Lipophilic Efficiency (logP)” value is reported as 2.91. The “Averaged Max % Response (±St. Dev.)” value on GPR139 is recorded as 88.51 ± 8.87%. Besides, the EC50 at GPR139 (HEK-GPR139 cells) was found to be 572 nM.

For the molecule `O=C(Cn1ncc2c(Cl)cccc21)NCCc1ccc(Cl)cc1` [SR-01000155030], the figures for the “Lipophilic Efficiency (logD)” value in the data set on parental HEK cells (HEK Agonist Activity section) and at GPR139 (based on logD) were 1.32 and 3.06, respectively. In addition, the “Lipophilic Efficiency (logP)” value in the data set with parental HEK cells (HEK Agonist Activity section) is on record as 1.32; on GPR139 (based on logP), 3.06. Further, the “Averaged Max % Response (±St. Dev.)” value is 10.75 ± 8.11% in the data set on parental HEK cells (HEK Agonist Activity section) and 113.63 ± 16.89% on GPR139. Moreover, the EC50 in the data set on parental HEK cells (setting [1]) was more than 14100 nM; on GPR139 (setting [3]), 252 nM. For the same molecule, the “Hill Slope” value at GPR139 (fitted dose-response curve) came to 0.65. Moreover, the “Efficiency Ligand” value on GPR139 (ligand efficiency) stood at 0.40.

`CC(NC(=O)Cn1ncc2c(Cl)cccc21)c1ccc2c(c1)OCCO2` (centres unmarked) [SR-01000155068]: the “Lipophilic Efficiency (logD)” value with parental HEK cells (HEK Agonist Activity) amounted to 2.28; at GPR139 (based on logD) it was 5.00. The “Lipophilic Efficiency (logP)” value with parental HEK cells (HEK Agonist Activity) came out at 2.28; at GPR139 (based on logP) it was 5.00. Besides, the “Averaged Max % Response (±St. Dev.)” value was −2.13 ± 1.88% with parental HEK cells (HEK Agonist Activity) and 127.51 ± 13.72% on GPR139. The values for the EC50 in the data set on parental HEK cells (setting [4]) and at GPR139 (setting [3]) were more than 14100 nM and 26.7 nM, respectively. Besides, the “Hill Slope” value at GPR139 (fitted dose-response curve) is listed as 0.58. In addition, the “Efficiency Ligand” value at GPR139 (ligand efficiency) was found to be 0.41.

For `CC1CCC(NC(=O)CCC(=O)N2CCSc3ccccc32)CC1` (centres unmarked) [SR-01000159110], the “Lipophilic Efficiency (logD)” value in the data set on parental HEK cells (HEK Agonist Activity) came out at 2.25; at GPR139 (based on logD) it was 5.19. In addition, the “Lipophilic Efficiency (logP)” value in the data set on parental HEK cells (HEK Agonist Activity) is given as 2.25; on GPR139 (based on logP), 5.19. The “Averaged Max % Response (±St. Dev.)” value came to 3.44 ± 10.60% in the data set with parental HEK cells (HEK Agonist Activity) and 95.57 ± 19.71% at GPR139. In addition, the EC50 is more than 14100 nM with parental HEK cells (setting [4]) and 16.1 nM at GPR139 (setting [3]). Moreover, the “Hill Slope” value at GPR139 (fitted dose-response curve) was 1.18. Also, the “Efficiency Ligand” value on GPR139 (ligand efficiency) was 0.45.

Consider `CC(C)CCNC(=O)CN1CCN(Cc2ccc(F)cc2Cl)C1=O` [SR-01000161248], for which, in the data set with parental HEK cells (HEK Agonist Activity section), the “Lipophilic Efficiency (logD)” value was found to be 2.51, the “Lipophilic Efficiency (logP)” value was determined as 2.51 and the “Averaged Max % Response (±St. Dev.)” value is −6.23 ± 14.84%. Also, the EC50 with parental HEK cells (setting [2]) is more than 14100 nM. In addition, at GPR139, the “Efficiency Ligand” value worked out at 0.38, the “Hill Slope” value is recorded as 1.12, the “Lipophilic Efficiency (logD)” value is 4.17 and the “Lipophilic Efficiency (logP)” value is 4.17. Also, the “Averaged Max % Response (±St. Dev.)” value at GPR139 came out at 106.33 ± 15.91%. Further, the EC50 on GPR139 (HEK-GPR139 cells) is 309 nM.

With `Cc1ccccc1-c1nnc(CN2CCc3ccccc3C2)o1` [SR-01000162178], in the data set with parental HEK cells (HEK Agonist Activity section), the “Lipophilic Efficiency (logD)” value is reported as 1.73, the “Lipophilic Efficiency (logP)” value stood at 1.58 and the “Averaged Max % Response (±St. Dev.)” value turned out to be 25.44 ± 6.84%. Besides, in the data set on parental HEK cells (setting [1]), the EC50 was more than 14100 nM. At GPR139, the “Efficiency Ligand” value amounted to 0.40, the “Hill Slope” value stood at 1.13, the “Lipophilic Efficiency (logD)” value amounted to 3.44 and the “Lipophilic Efficiency (logP)” value was 3.29. The “Averaged Max % Response (±St. Dev.)” value on GPR139 worked out at 112.85 ± 32.26%. The EC50 on GPR139 (HEK-GPR139 cells) stood at 272 nM.

For orientation: EC50 means the concentration that produces a half-maximal response.
